This is an account of results in patent US5240961A, “Method of treating reduced insulin-like growth factor and bone loss associated with aging” (priority 1992, dated 1993).

Values joined by “and” are separate entries in the source; they are usually repeats but may differ in a detail not shown here. Equal entries are not always repeated. “Also recorded” adds a separate entry of the source. Where two headings read alike, the source gives them in different places. Bounds are passed on as bounds.

For data set [1] the following is noted: compared to other vitamin D analogues; cited from earlier work.
For the next data set, the system named is serum osteocalcin. Description: Comparative effects of L-carnitine, acetyl carnitine and γ-butyrobetaine on serum osteocalcin in adult mice. It counts as in vivo, mouse (BALB/c male). Particulars: for Osteocalcin: actual intake estimated about half. As to the method:
(§1) The present invention is further explained by the following examples which should not be construed by way of limiting the scope of the present invention. In the following examples, serum carnitine levels were determined by the method of R. Parvin et al., Anal. Biochem., vol. 79 (1979) pp. 190-201. Serum IGF-1 concentrations were measured by immunoradiometric assay, for example, by IRMA Kit available from Diagnostic Systems Laboratories, Inc., Webster, Texas. Serum osteocalcin levels were measured according to the method of Grunaberg et al., Meth. Enzymology, vol 107 (1984) 516, and which is embodied in an osteocalcin kit available from Biomedical Technologies, Inc., Stoughton, Mass. All mice used in the animal studies were BALB/c strain which is commercially available.
(§2) Tests were performed to compare the effects on serum osteocalcin of diet supplementation with L-carnitine, its precursor, γ-butyrobetaine (available from Aldrich Chemical Co.) and one of its metabolites, acetylcarnitine (available from Life Science Resources, Milwaukee, Wis. 53223). Twenty adult mice, i.e., three months of age, (BALB/c male mice) were divided into seven groups. Each of the groups was fed diets as indicated hereinbelow for twelve weeks. One group (n=3) was fed a diet with L-carnitine supplementation at a dose of 50 mg/kg of body weight each day, while the second group (n=3) was fed L-carnitine at a daily dose of about 100 mg/kg. The third group (n=2) was fed a diet with acetylcarnitine supplementation at a daily dose of 50 mg/kg, while the fourth group (n=3) was fed a daily dose of 100 mg/kg of this compound. The fifth group (n=2) was fed a daily dose of 50 mg/kg of γ-butyrobetaine supplementation,while the sixth group was fed a daily dose of 100 mg/kg of γ-butyrobetaine. The seventh group (n=4) was fed normal, unsupplemented feed (control). Mouse blood was sampled prior to beginning of the trial (pretreatment), at six weeks, and at the end of the trial (twelve weeks). The samples were evaluated for serum osteocalcin levels at six and twelve weeks. Total carnitine was determined at twelve weeks.

The nature of data set [2]: Serum carnitine at 12 weeks in adult mice fed L-carnitine, acetyl carnitine or γ-butyrobetaine. On the set-up: species or system mouse (BALB/c male). Particulars: mouse, in vivo, po. As to the method:
as §1, §2

For data set [3] the following is noted: human beings; cited from earlier work.
Data set [4] deals with children with carnitine deficiency. Particulars: carnitine repletion; cited from earlier work.
The conditions of data set [5]: prolonged treatment, moderate or high doses; cited from earlier work.
For data set [6] the following is noted: prolonged treatment, moderate or high doses; cited from earlier work. This is another data set of the same source.
The test system of a further data set is body composition. Particulars: replacement doses; cited from earlier work.

In the case of `C=C1/C(=C\C=C2/CCC[C@]3(C)[C@@H]([C@H](C)/C=C/[C@H](C)C(C)C)CC[C@@H]23)C[C@@H](O)C[C@@H]1O` [1α-hydroxy vitamin D2], the “toxicity” value in data set [1] is “low toxicity”.

On to `CC(=O)O[C@H](CC(=O)[O-])C[N+](C)(C)C` [acetyl L-carnitine, acetylcarnitine, reference compound], for which the “significance of difference in osteocalcin vs control (p, student's t test)” value with serum osteocalcin (50 mg/kg/day) is reported as below 0.01. Also, the Osteocalcin in the data set with serum osteocalcin (50 mg/kg/day, 6 wks) is 70 ng/mL and 70 ± 4 ng/mL; in the data set with serum osteocalcin (50 mg/kg/day, 12 wks) it was 62 ng/mL; in the data set on serum osteocalcin (100 mg/kg/day, 6 wks) it was 60 ng/mL and 61 ± 6 ng/mL; with serum osteocalcin (100 mg/kg/day, 12 wks) it was 77 ng/mL. Further, the concentration at 2016 h in data set [2] (50 mg/kg/day, 12 wks, read-out: Serum carnitine, Free) stood at 45.6 µM; in data set [2] (50 mg/kg/day, 12 wks, read-out: Serum carnitine, Total), 59.6 µM; in data set [2] (100 mg/kg/day, 12 wks, read-out: Serum carnitine, Free), 52.1 µM; in data set [2] (100 mg/kg/day, 12 wks, read-out: Serum carnitine, Total), 65.1 µM.

For the compound `C[N+](C)(C)CC(O)CC(=O)[O-]` (stereo not drawn) [carnitine, β-hydroxy-γ-N-trimethylammounium butyrate], the serum half-life result in data set [3] is “about 30 minutes”. In addition, the “stunted growth” value in data set [4] is recorded as “normalizes with carnitine repletion”.

As to `C[N+](C)(C)CCCC(=O)[O-]` [γ-butyrobetaine, 4-trimethylamino butyrate], the “significance of difference in osteocalcin vs control (p, student's t test)” value was below 0.05 with serum osteocalcin (50 mg/kg/day) and “< .01” in the data set with serum osteocalcin (100 mg/kg/day). The Osteocalcin was 184 ng/mL and 184 ± 6 ng/mL with serum osteocalcin (50 mg/kg/day, 6 wks); 173 ng/mL in the data set with serum osteocalcin (50 mg/kg/day, 12 wks); 220 ng/mL and 220 ± 75 ng/mL in the data set on serum osteocalcin (100 mg/kg/day, 6 wks); 122 ng/mL in the data set with serum osteocalcin (100 mg/kg/day, 12 wks). Moreover, in the data set on serum osteocalcin (adult mice, 50 and 100 mg/kg/day), the “effect on osteocalcin” value is “stimulate osteocalcin production in adult mice; also recorded: maintained osteocalcin blood levels; also recorded: at least as effective as, and possibly better than, L-carnitine in increasing osteocalcin levels”. For the same compound, the concentration at 2016 h worked out at 40.7 µM in data set [2] (50 mg/kg/day, Serum carnitine, Free); 63.2 µM in data set [2] (50 mg/kg/day, Serum carnitine, Total); 40.4 µM in data set [2] (100 mg/kg/day, Serum carnitine, Free); 58.5 µM in data set [2] (100 mg/kg/day, Serum carnitine, Total).

For the compound “IGF-1: insulin-like growth factor 1, produced and released by the liver in response to growth hormone”, the potential side-effects entry in data set [5] was “abdominal bloating, indigestion and nausea, and alteration in cellular insulin receptor sites”.

For the compound “growth hormone: pituitary growth hormone, now readily available as a biosynthetic product”, in data set [6], the side-effects observed result is “stimulation of neoplastic growth, acromegaly, amenorrhea, flushing and nausea, "dawn" phenomena (a condition of insulin insufficiency which is very dangerous for diabetics), either hyperglycemia or hypoglycemia in diabetics, and fluid retention”. Also, the “alterations in body composition” value with body composition is listed as “can be reversed by replacement doses of the hormone”.
